The values below come from ChEMBL document CHEMBL1201862, “PubChem BioAssay data set” (2004).

The source made the active and inactive calls.

In test [1] the target is Intestinal-type alkaline phosphatase (Mus musculus, UniProt P24822). The experiment in a line: PubChem AID 488875. In kind it is functional.
Test [2] has as its target T1, Intestinal-type alkaline phosphatase (Homo sapiens, UniProt P09923). The experiment in a line: human intestinal alkaline phosphatase activators, dose response, biochemical, luminescence, uHTS hits (AID 463120). In kind it is functional.
The target of test [3] is T1, Intestinal-type alkaline phosphatase. The experiment in a line: human IAP activators, dose response, biochemical, luminescent, uHTS hits, set 2 (AID 488817).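 Also: potency of activators that raise enzyme activity.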 In kind it is functional.
Test [4] concerns the target T2, Alkaline phosphatase, tissue-nonspecific isozyme (Homo sapiens, UniProt P05186).
T2 sequence (P05186 whole entry): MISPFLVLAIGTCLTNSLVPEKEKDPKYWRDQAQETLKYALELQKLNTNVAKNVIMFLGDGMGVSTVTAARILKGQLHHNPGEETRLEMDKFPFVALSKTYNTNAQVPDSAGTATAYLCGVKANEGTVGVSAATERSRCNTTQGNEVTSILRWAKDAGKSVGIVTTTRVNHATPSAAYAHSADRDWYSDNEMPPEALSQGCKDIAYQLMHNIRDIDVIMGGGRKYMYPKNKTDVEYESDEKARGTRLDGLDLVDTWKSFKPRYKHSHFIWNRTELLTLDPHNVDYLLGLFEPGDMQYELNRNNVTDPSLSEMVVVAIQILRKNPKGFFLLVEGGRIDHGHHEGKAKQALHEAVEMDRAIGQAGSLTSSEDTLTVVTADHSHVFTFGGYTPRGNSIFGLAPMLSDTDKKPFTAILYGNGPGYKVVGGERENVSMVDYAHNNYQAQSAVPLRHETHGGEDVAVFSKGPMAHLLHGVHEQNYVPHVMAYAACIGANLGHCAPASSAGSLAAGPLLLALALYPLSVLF
The experiment in a line: TNAP enzyme activators, dose response, selectivity assay for human IAP activator project, biochemical, TNAP isozyme, human IAP uHTS hits (AID 488886).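 Also: potency of compounds raising TNAP activity as a selectivity check on IAP activators.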 It counts as functional.

Test [5] has as its system HEK293. As to the kind of experiment: cells. Particulars: Homo sapiens.
The subject of test [6] is HEK293. The experiment in a line: cells. Conditions: Homo sapiens. The source holds these as a separate data set.
The target of test [7] is T3, Voltage-gated N-type calcium channel alpha-1B subunit/Amyloid beta A4 precursor protein-binding family A member 1 (Homo sapiens, UniProt Q00975+Q02410). It counts as protein assay.
The target in test [8] is T3, Voltage-gated N-type calcium channel alpha-1B subunit/Amyloid beta A4 precursor protein-binding family A member 1. In kind it is protein assay. This is another data set of the same source.
The target in test [9] is T4, Apoptotic protease-activating factor 1 (Homo sapiens, UniProt O14727).
T4 sequence (O14727 whole entry): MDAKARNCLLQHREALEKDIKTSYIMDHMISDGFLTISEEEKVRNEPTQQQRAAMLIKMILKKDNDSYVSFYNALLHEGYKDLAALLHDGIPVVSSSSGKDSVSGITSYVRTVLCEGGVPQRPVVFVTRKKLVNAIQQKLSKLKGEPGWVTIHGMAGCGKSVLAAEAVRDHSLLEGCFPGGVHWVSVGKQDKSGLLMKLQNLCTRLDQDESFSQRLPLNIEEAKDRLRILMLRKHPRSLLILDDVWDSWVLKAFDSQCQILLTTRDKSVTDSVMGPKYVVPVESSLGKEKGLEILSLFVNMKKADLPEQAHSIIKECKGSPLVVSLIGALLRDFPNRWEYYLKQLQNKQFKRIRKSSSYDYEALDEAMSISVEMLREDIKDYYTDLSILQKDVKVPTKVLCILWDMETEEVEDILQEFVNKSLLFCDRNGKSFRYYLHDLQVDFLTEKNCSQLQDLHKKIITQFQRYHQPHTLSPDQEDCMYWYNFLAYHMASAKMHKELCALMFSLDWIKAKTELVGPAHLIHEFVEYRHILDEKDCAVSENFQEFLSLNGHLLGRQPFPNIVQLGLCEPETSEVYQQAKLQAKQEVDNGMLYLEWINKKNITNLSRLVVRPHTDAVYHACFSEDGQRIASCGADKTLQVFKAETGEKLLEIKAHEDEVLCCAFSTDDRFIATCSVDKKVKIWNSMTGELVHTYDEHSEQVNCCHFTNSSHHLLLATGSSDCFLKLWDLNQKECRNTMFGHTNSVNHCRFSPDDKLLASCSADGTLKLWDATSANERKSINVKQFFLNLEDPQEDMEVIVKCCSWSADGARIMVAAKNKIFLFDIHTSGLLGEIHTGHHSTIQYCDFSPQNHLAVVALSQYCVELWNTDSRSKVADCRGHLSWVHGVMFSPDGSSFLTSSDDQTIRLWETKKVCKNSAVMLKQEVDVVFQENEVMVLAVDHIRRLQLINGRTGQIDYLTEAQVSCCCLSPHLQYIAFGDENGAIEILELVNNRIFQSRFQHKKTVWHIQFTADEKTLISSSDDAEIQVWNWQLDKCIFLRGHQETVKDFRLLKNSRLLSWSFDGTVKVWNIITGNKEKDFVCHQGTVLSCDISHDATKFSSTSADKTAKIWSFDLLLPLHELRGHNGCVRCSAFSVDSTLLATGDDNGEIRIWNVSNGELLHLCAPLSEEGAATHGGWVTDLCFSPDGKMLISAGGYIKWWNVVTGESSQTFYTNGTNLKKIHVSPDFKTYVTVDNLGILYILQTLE
The experiment in a line: activation of Apaf-1 mediated apoptosis – fluorescent, uHTS hits, dose response (AID 588554). It counts as functional.

For test [10], the target named is Trypsin (Sus scrofa, UniProt P00761). As to the kind of experiment: porcine trypsin inhibitors, dose response, selectivity assay for Rce1 protease inhibitor project, biochemical, quenched peptide fluorescence, cherry-pick (AID 488789).
The target of test [11] is CAAX prenyl protease 1 (Saccharomyces cerevisiae S288c, UniProt P47154). As to the kind of experiment: Ste24 protease inhibitors, dose response, biochemical, S. cerevisiae, plate reader, cherry-pick (AID 488815).
In test [12] the target is T5, CAAX prenyl protease 2 (Homo sapiens, UniProt Q9Y256).
T5 sequence (Q9Y256 whole entry): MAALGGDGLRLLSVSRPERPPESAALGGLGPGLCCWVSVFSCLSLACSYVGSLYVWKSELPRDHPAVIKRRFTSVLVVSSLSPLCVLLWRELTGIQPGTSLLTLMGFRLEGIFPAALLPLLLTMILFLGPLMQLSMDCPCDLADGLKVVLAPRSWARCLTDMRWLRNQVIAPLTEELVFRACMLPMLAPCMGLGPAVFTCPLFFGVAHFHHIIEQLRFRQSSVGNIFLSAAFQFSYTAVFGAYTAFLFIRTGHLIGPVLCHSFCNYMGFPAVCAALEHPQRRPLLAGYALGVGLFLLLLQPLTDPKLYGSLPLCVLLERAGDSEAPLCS
As to the kind of experiment: human Rce1 protease inhibitors, dose response, biochemical, yeast membranes, quenched-peptide fluorescence, cherry-pick (AID 588849).

Test [13] in a line: Luminescence Cell-Based Dose Response Follow up to Identify Inhibitors of Platelet Dense Granule Release. [Related pubchem assays (depositor defined):AID1663, AID1678, AID1889, AID2519]. It counts as functional.
Test [14] concerns Candida albicans. As to the kind of experiment: reversal of fluconazole resistance in C. albicans, dose response, CaCi-2 strain, Alamar Blue, dry powder, set 3 (AID 488907). In kind it is functional, organism-based.
Test [15] is described as follows: cells. It counts as functional, cell-based.
A short description of test [16]: cells. It counts as functional, cell-based. This is another data set of the same source.
Test [17] in a line: Luminescence Cell-Based Dose Retest to Confirm Inhibitors of Cancer Stem Cells. [Related pubchem assays (depositor defined):AID2717, AID2721]. It counts as functional. Particulars: Homo sapiens.
The target of test [18] is T6, Heat shock factor protein 1 (Mus musculus, UniProt P38532).
T6 sequence (P38532 whole entry): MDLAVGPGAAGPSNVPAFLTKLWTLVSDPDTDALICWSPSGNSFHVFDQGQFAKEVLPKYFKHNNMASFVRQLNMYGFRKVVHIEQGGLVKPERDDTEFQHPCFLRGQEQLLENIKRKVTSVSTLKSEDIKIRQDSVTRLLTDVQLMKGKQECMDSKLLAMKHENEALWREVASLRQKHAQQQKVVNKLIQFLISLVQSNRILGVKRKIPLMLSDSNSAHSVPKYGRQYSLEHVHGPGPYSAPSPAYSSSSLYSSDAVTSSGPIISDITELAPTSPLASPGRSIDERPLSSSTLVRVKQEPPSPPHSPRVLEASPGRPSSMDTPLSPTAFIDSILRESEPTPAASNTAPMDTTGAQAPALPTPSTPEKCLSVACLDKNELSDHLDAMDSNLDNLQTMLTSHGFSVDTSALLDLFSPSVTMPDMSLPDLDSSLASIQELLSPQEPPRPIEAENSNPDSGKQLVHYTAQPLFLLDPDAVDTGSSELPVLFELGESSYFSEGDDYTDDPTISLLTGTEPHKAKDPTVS
The experiment in a line: HSF1 potentiators in luciferase reporter cells, confirmation, cell-based, NIH3T3, luminescence, dose retest (AID 435004).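 Also: stress induced by proteasome inhibitor MG132 added 30 min after compound; luciferase reporter driven by HSF1 response element in NIH3T3 cells; actives raise luminescence as potentiators of the MG132 stress response.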 It counts as functional. On the technique in general: In a reporter assay the amount or activity of a reporter protein is the signal.

For test [19], the target named is T7, Hexokinase HKDC1 (Homo sapiens, UniProt Q2TB90).
T7 sequence (Q2TB90 whole entry): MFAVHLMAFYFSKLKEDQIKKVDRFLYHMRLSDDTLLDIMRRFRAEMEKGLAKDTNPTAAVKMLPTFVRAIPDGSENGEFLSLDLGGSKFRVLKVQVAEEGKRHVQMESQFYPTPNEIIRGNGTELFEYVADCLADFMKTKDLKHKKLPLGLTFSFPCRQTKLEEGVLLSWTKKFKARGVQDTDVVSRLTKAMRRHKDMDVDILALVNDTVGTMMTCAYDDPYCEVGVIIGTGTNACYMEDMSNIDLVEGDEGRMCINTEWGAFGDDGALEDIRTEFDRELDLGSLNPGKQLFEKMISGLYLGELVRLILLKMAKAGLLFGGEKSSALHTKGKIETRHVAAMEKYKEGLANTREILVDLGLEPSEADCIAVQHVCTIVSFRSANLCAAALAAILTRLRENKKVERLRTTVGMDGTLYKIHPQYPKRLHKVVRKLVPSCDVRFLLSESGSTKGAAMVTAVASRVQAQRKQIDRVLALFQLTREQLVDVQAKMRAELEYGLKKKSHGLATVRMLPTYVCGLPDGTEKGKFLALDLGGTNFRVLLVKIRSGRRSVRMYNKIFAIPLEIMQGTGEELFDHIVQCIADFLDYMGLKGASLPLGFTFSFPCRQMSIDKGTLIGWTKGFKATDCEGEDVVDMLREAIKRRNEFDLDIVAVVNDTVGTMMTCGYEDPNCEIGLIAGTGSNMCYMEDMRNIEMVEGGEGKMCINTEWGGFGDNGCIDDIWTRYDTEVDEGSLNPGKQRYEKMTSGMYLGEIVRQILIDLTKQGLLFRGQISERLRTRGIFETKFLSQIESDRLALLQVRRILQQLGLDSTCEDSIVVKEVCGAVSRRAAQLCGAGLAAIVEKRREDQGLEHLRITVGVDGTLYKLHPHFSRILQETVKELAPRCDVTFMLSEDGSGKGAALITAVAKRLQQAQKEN
The experiment in a line: HKDC1 hexokinase inhibitors, dose response, biochemical, W721R variant (AID 504729). In kind it is functional.

Test [20] has as its target Lysine-specific demethylase 4A (Homo sapiens, UniProt O75164). As to the kind of experiment: JMJD2A histone demethylase inhibitors, dose response, selectivity assay for GASC-1 inhibitor project, biochemical, DELFIA europium, cherry-picked samples (AID 488840).
In test [21] the target is Lysine-specific demethylase 4C (Homo sapiens, UniProt Q9H3R0). The experiment in a line: GASC-1 (JMJD2C) histone demethylase inhibitors, dose response, biochemical, DELFIA europium, cherry-picked samples (AID 488835). It counts as functional.
The subject of test [22] is INS1. As to the kind of experiment: beta cell apoptosis inhibitors, cytokine rescue, dose response, luminescence, retest (AID 449756).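 Also: cell death triggered by IL-1 beta plus TNF-alpha plus IFN-gamma mixture; protective hits raise ATP signal compared with cytokine alone wells.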 It counts as functional, cell-based. Conditions: Rattus norvegicus.

T3 sequence (Q00975 whole entry): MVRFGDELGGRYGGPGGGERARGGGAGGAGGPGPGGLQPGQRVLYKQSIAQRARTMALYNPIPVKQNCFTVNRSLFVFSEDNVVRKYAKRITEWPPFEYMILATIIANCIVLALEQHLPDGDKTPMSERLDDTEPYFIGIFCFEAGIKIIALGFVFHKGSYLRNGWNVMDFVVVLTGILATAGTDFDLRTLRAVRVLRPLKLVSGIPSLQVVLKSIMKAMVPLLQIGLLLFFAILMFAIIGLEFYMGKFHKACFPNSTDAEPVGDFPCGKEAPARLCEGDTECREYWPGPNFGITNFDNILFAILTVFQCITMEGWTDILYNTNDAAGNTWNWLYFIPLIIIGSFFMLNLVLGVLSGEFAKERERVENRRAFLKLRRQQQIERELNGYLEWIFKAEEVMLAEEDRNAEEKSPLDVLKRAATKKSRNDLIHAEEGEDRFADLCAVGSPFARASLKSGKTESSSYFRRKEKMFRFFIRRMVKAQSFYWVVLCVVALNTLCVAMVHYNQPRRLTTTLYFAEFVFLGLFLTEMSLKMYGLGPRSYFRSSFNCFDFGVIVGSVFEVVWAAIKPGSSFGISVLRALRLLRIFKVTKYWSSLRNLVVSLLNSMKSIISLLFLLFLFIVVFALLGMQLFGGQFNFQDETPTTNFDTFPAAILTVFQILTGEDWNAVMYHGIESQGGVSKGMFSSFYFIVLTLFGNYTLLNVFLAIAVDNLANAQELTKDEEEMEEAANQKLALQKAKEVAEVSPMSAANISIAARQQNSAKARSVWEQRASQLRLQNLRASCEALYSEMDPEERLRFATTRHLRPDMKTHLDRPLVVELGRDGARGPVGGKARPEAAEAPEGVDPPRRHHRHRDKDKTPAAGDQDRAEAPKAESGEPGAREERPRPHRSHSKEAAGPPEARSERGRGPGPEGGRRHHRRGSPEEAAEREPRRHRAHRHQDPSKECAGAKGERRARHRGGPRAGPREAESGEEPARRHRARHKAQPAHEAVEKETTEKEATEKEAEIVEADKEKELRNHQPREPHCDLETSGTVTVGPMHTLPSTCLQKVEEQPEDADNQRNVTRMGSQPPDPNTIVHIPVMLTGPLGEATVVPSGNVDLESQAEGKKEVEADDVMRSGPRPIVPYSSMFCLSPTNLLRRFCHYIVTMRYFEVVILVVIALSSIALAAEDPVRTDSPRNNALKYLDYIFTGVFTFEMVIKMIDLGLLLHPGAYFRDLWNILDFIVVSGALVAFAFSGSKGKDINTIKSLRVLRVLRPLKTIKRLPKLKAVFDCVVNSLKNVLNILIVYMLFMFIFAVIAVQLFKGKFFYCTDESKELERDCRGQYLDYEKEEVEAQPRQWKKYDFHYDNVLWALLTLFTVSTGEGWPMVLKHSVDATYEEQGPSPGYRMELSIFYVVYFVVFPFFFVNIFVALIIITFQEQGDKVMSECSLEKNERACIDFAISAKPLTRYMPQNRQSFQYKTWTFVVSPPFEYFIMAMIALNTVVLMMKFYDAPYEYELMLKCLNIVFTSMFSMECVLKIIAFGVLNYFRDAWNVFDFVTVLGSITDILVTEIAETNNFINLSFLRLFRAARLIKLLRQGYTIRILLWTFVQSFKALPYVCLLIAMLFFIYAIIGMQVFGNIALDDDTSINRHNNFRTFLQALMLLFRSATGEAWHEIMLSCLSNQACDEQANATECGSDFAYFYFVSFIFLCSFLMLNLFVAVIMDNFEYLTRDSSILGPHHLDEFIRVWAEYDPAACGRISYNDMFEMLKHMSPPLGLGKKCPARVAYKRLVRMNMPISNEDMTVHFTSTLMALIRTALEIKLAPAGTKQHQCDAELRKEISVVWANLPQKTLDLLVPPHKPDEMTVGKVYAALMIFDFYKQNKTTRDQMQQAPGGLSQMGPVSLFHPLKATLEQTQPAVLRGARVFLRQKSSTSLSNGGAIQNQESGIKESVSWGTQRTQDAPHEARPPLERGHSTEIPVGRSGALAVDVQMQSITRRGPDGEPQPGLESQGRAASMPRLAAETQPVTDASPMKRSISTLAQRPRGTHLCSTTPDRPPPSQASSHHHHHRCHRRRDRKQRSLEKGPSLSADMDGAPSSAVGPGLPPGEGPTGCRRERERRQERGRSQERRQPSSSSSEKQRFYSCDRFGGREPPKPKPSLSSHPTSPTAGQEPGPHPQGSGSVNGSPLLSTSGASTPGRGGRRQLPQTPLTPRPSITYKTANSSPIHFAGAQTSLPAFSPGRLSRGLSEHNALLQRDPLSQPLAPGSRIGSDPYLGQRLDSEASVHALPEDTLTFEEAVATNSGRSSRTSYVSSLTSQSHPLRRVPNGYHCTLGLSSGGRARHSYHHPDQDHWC
T3 sequence (Q02410 whole entry): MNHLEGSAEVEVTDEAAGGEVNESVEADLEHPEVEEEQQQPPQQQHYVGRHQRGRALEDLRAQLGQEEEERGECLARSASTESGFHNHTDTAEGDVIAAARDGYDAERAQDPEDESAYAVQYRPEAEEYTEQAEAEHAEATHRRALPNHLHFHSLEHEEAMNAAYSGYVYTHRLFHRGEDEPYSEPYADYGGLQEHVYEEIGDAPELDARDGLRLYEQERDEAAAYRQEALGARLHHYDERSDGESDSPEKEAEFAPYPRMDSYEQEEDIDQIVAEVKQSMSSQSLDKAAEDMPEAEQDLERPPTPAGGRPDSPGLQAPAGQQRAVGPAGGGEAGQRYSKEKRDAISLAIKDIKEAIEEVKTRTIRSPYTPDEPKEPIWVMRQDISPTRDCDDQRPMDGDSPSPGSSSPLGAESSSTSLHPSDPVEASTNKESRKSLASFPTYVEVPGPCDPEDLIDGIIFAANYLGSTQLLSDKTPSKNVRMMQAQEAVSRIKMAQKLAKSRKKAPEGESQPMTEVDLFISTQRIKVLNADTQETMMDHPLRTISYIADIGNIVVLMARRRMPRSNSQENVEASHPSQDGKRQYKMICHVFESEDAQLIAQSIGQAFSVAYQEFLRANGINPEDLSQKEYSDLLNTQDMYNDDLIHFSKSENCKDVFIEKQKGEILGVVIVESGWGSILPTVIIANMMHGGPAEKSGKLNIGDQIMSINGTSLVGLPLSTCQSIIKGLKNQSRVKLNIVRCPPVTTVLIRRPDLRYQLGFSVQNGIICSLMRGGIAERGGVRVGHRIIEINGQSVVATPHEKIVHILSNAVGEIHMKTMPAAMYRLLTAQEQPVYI
T1 sequence (P09923 whole entry): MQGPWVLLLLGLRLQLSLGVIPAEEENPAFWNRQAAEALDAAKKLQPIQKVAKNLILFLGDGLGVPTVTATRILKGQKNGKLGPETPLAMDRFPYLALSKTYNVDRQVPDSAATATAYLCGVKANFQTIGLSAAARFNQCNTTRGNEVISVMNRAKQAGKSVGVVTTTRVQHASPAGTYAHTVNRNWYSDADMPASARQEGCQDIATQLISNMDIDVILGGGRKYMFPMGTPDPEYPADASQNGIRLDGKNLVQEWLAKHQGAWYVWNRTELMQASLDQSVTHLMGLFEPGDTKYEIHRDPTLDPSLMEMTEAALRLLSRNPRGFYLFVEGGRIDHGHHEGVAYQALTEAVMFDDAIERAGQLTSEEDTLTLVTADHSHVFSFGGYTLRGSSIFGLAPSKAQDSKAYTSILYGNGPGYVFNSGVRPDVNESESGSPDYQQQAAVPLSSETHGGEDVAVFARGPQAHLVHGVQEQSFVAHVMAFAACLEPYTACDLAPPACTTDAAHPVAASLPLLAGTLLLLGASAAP
Chain of CAAX prenyl protease 1 (P47154 whole entry): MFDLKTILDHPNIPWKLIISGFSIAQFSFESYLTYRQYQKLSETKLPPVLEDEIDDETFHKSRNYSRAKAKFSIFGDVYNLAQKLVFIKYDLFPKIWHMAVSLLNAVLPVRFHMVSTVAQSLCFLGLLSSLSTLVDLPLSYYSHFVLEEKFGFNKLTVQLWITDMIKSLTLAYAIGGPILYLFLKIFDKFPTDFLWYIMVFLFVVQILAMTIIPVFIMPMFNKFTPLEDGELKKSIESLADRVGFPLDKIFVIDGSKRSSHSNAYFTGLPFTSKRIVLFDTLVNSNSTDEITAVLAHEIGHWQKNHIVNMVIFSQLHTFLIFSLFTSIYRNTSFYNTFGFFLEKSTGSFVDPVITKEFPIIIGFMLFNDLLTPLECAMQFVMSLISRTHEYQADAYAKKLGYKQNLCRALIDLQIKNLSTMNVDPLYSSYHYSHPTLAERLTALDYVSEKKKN
Chain of Trypsin (P00761 whole entry): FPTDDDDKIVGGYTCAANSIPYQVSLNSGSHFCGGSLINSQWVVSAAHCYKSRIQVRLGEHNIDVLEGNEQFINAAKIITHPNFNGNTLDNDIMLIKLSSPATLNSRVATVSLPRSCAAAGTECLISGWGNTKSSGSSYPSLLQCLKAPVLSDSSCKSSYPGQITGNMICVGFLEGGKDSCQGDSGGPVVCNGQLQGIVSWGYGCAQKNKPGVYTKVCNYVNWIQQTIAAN
Chain of Intestinal-type alkaline phosphatase (Mus musculus, UniProt P24822) (P24822 whole entry): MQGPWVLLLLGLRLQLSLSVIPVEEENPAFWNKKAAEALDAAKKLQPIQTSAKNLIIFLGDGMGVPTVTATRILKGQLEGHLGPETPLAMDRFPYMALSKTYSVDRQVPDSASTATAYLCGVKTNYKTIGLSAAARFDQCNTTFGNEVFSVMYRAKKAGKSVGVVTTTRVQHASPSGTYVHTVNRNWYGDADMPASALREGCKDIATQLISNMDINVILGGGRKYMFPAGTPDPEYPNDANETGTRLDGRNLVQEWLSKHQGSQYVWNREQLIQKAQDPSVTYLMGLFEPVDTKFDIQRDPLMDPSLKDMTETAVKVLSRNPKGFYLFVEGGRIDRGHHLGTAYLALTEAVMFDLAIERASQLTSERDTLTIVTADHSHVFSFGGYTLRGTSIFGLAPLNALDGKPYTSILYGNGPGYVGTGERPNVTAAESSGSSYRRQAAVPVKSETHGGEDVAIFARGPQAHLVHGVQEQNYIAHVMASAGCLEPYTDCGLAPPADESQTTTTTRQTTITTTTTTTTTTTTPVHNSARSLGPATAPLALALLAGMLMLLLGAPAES

With `COc1cc(NC(=O)NCC2CCN(Cc3ccccc3Cl)CC2)cc(OC)c1OC`, the EC50 (commonly the concentration needed to bring the measured effect to its halfway point) in test [1] is 33.9 µM (active); in test [2], 61.3 µM (active); in test [3], 46.9 µM (active); in test [4], 63.1 µM (active).
Consider `COc1cc2c(cc1OC)-c1cc(OCc3cccnc3)nc(=O)n1CC2`, for which the EC50 in test [5] and in test [6] was > 59.6 µM (inactive) throughout.
Turning to `Cc1cc(C)c2c(=O)c(/C=C3\NC(=S)NC3=O)coc2c1`, the IC50 (as a rule, the concentration needed to halve the response being measured) is 18.6 µM (active) in test [7] and > 50 µM (inactive) in [8]. For the same compound, in test [9], the EC50 is 7.82 µM (active).
For the compound `COc1ccc2c(c1)cc(C(=O)N[C@@H](CCSC)C(=O)N1CCC(C(=O)O)CC1)n2C`, the AC50 (commonly the midpoint of the concentration-response curve, whichever way the signal moves) in [10] was 27.2 µM (active); in test [11], 8.08 µM (active); in [12], 22.2 µM (active).
In the case of `CCCC(=O)Nc1cccc(NC(=O)Cc2ccc(Cl)cc2)c1`, the EC50 in [13] is 500 µM (inactive).
As for `Cc1ccnc(N2CCN(C(=O)c3ccc(Cl)cc3)CC2)c1`, the AC50 in test [14] was 0.0873 µM (active).
In the case of `Oc1ccc(/C=N/Nc2ncc(Br)cn2)c(O)c1`, the results for the EC50 in test [15], in test [16] and in test [18] were 41.1 µM (active), > 350 µM (not active) and 18.6 µM (active), respectively. In addition, the AC50 in test [17] was 4.55 µM (active); in [20] it was > 60 µM (inactive); in [21], 0.829 µM (active); in test [22], 1.54 µM (active). In addition, the IC50 in [19] was 1.68 µM (active).
